# Where two headings read alike, the source gives them in different places.
# How the values were obtained:
# [1] = target: T1, glutathione-S-transferase (GST) tagged LXRbeta LBD (ligand binding domain) (Homo sapiens, UniProt P55055); assay: LanthaScreen TR-FRET Liver X Receptor Coactivator Assay, co-activator recruitment to LXRbeta LBD; assay type: biochemical
# T1 construct: purchased Invitrogen pv4658.pps
# T1 sequence (P55055 222-460 limits assumed): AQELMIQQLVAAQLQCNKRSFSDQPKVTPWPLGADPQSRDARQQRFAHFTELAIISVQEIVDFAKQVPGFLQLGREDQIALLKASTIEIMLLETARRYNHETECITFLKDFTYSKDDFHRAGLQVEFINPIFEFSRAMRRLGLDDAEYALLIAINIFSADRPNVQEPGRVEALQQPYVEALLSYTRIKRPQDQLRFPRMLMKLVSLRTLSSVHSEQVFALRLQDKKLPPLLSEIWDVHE
# Experimental: (§1) Potency (Inflection Point, IP) and efficacy (Emax) are evaluated via compound-induced co-activator recruitment to glutathione-S-transferase (GST) tagged LXRbeta and LXRalpha LBD (ligand binding domain) proteins in relation to reference dual agonist compound T0901317 (N-(2,2,2-Trifluoroethyl)-N-[4-[2,2,2-trifluoro-1-hydroxy-1-(trifluoromethyl)ethyl] phenyl] benzenesulfonamide) using the LanthaScreen™ TR-FRET Liver X Receptor Coactivator Assays according to manufacturer's instructions (Invitrogen catalog number pv4658.pps and pv4655). While running the LanthaScreen™ TR-FRET Liver X Receptor Coactivator Assay, LXR alpha-LBD or LXR beta-LBD was added to ligand test compounds followed by addition of a mixture of a fluorescein-labelled coactivator peptide and terbium-conjugated anti-GST antibody. After an incubation period at room temperature, TR-FRET (time-resolved fluorescence resonance energy transfer) was measured using a filter-based instrument capable of TR-FRET, e.g. PerkinElmer Envision.
# [2] = target: T2, glutathione-S-transferase (GST) tagged LXRalpha LBD (ligand binding domain) (Homo sapiens, UniProt Q13133); assay: LanthaScreen TR-FRET Liver X Receptor Coactivator Assay, co-activator recruitment to LXRalpha LBD; assay type: biochemical; conditions: for LXR alpha IP (nM) / EC50: potency (Inflection Point, IP), co-activator recruitment to LXRalpha LBD, in relation to T0901317; for LXR alpha IP (Inflection Point, potency): co-activator recruitment to GST-LXRalpha LBD, TR-FRET; for EC50: read-out: LXR alpha IP
# T2 construct: purchased Invitrogen pv4655
# T2 sequence (Q13133 209-447 limits assumed): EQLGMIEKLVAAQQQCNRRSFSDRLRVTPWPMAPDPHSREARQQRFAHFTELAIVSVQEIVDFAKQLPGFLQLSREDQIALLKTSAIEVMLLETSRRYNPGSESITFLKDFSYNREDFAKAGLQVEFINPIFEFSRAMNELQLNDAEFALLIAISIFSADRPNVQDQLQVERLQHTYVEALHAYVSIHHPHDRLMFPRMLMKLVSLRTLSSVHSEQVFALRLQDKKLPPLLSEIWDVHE
# Experimental: as §1
# [3] = efficacy at max dose, in relation to reference dual agonist T0901317, read-out: LXR beta Activity @ max dose (%)
# [4] = potency (Inflection Point, IP), co-activator recruitment to LXRbeta LBD, in relation to T0901317, read-out: LXR beta IP
# [5] = efficacy at max dose, in relation to reference dual agonist T0901317, read-out: LXR alpha Activity @ max dose (%)
# [6] = co-activator recruitment to GST-LXRbeta LBD, TR-FRET, read-out: LXR beta IP (Inflection Point, potency)
# [7] = efficacy in relation to reference dual agonist T0901317, read-out: LXR beta Activity @ max dose
# [8] = efficacy in relation to reference dual agonist T0901317, read-out: LXR alpha Activity @ max dose
Structure (SMILES),"Emax [1, 3] [%]","EC50 [1, 4] [nM]","Emax [2, 5] [%]",LXR alpha IP (nM) [2],"EC50 [1, 6] [nM]","Emax [1, 7] [%]","LXR alpha IP (Inflection Point, potency) [2]","Emax [2, 8] [%]",EC50 [2] [nM]
"CN(C)C(=O)c1ccc(N2CCC(CC3CCN(S(=O)(=O)c4cccc(Cl)c4)CC3)CC2)cc1Cl [Example 13-13, 2-chloro-4-[4-({1-[(3-chlorophenyl)sulfonyl]-piperidin-4-yl}methyl)-piperidin-1-yl]-N,N-dimethylbenzamide]",,,,,74,49,NO IP,15,
"CN(C)C(=O)c1ccc(N2CCC(CC3CCN(C(=O)[C@](O)(c4ccccc4F)C(F)(F)F)CC3)CC2)nc1Cl [Example 7-80, 2-chloro-N,N-dimethyl-6-[4-({1-[(2R)-3,3,3-trifluoro-2-(2-fluorophenyl)-2-hydroxypropanoyl]piperidin-4-yl}methyl)piperidin-1-yl]pyridine-3-carboxamide]",85,12,27,,,,,,425
"COc1cccc([C@@](O)(C(=O)N2CCC(C)(CC3CCN(c4ccc(C(=O)N(C)C)c(C)c4)CC3)CC2)C(F)(F)F)c1 [Example 2-80, N,N,2-trimethyl-4-[4-({4-methyl-1-[(2R)-3,3,3-trifluoro-2-hydroxy-2-(3-methoxyphenyl)propanoyl]piperidin-4-yl}methyl)piperidin-1-yl]benzamide]",19,19,0,NO IP,,,,,
"CN(C)C(=O)c1ccc(N2CCC(CC3CCN(C(=O)C4(c5ccccc5Cl)CC4)CC3)CC2)nc1Cl [Example 7-53, 2-chloro-6-{4-[(1-{[1-(2-chlorophenyl)cyclopropyl]carbonyl}piperidin-4-yl)methyl]piperidin-1-yl}-N,N-dimethylpyridine-3-carboxamide]",118,31,45,,,,,,571

# Now from value to compound:
"Emax [1, 3] [%]","EC50 [1, 4] [nM]","Emax [2, 5] [%]",LXR alpha IP (nM) [2],"EC50 [1, 6] [nM]","Emax [1, 7] [%]","LXR alpha IP (Inflection Point, potency) [2]","Emax [2, 8] [%]",EC50 [2] [nM],Structure (SMILES)
51,74,12,NO IP,,,,,,"CCc1cccc([C@@](O)(C(=O)N2CCC(CC3CCN(c4ccc(C(=O)N(C)C)cc4)CC3)CC2)C(F)(F)F)c1 [Example 2-141, 4-[4-({1-[(2R)-2-(3-ethyl-phenyl)-3,3,3-trifluoro-2-hydroxy-propanoyl]piperidin-4-yl}methyl)piperidin-1-yl]-N,N-dimethyl-benzamide]"
61,7,3,NO IP,,,,,,"COc1cccc([C@@](O)(C(=O)N2CCC(CC3CCN(c4ccc(C(=O)N(C)C)c(OC)n4)CC3)CC2)C(F)(F)F)c1 [Example 7-19, 2-methoxy-N,N-dimethyl-6-[4-({1-[(2R)-3,3,3-trifluoro-2-hydroxy-2-(3-methoxyphenyl)propanoyl]piperidin-4-yl}methyl)piperidin-1-yl]pyridine-3-carboxamide]"
77,20,44,,,,,,343,"CNC(=O)c1ccc(N2CCC(CC3CCN(C(=O)[C@](O)(c4ccccc4)C(F)(F)F)CC3)CC2)cc1Cl [Example 7-25, 2-chloro-N-methyl-4-[4-({1-[(2R)-3,3,3-trifluoro-2-hydroxy-2-phenylpropanoyl]piperidin-4-yl}methyl)piperidin-1-yl]benzamide]"
,,,,6,33,NO IP,12,,"CC(C)Oc1cccc([C@@](O)(C(=O)N2CCC(CC3CCN(c4ccc(C(N)=O)c(Cl)c4)CC3)CC2)C(F)(F)F)c1 [Example 12-7, 2-chloro-4-{4-[(1-{(2R)-3,3,3-trifluoro-2-hydroxy-2-[3-(1-methylethoxy)phenyl)-propanoyl}piperidin-4-yl)methyl]piperidin-1-yl}benzamide]"
60,10,12,NO IP,,,,,,"CNC(=O)c1ccc(N2CCC(CC3CCN(C(=O)[C@](O)(c4cccc(OC)c4)C(F)(F)F)CC3)CC2)cc1Cl [Example 7-33, 2-chloro-N-methyl-4-[4-({1-[(2R)-3,3,3-trifluoro-2-hydroxy-2-(3-methoxyphenyl)propanoyl]piperidin-4-yl}methyl)piperidin-1-yl]benzamide]"
